Measured values: paper PMC3589633 (Investigational New Drugs, 2012)
pIC50: −log10 of the molar value. Like-named read-outs stand apart in the source and are kept apart here. Marks after values point to notes of the source that are not given here.

What was measured:
[1] = test system: HER2; conditions: read-out: half-maximal inhibitory concentration (IC50); cited from earlier work
[2] = test system: advanced solid tumors; experiment: Antitumor activity by RECIST; assay type: in vivo, human
[3] = test system: HER4; conditions: read-out: half-maximal inhibitory concentration (IC50); cited from earlier work
[4] = Plasma pharmacokinetics, noncompartmental analysis; assay type: in vivo, human; conditions: for clearance: total body clearance
[5] = test system: patients with advanced solid tumors; conditions: cited from earlier work
[6] = test system: patients with advanced or metastatic solid tumors
[7] = test system: patients with advanced or metastatic solid tumors; conditions: in vivo
[8] = 20 mg q.d. oral, Day 27 steady state, n = 3
[9] = 60 mg q.d. oral, Day 27 steady state, individual value from one patient

**Q.** With `CN(C)C/C=C/C(=O)Nc1cc2c(Nc3ccc(F)c(Cl)c3)ncnc2cc1O[C@H]1CCOC1` [afatinib] as the compound, how does the pIC50 [1] read?
**A.** 7.85

**Q.** And the “patients with stable disease” value ([2]; 40 mg dose cohort)?
**A.** Five

**Q.** And the objective responses ([2]; 29 evaluable patients, RECIST)?
**A.** No objective responses

**Q.** What about the “patients remaining on treatment for more than 16 weeks” value ([2]; one in 20 mg/d group, two in 40 mg/d group) of the same compound?
**A.** Three

**Q.** What about the “duration of stable disease” value ([2]; one ovarian cancer patient, 20 mg group) of the same compound?
**A.** 204 days

**Q.** And the pIC50 [3]?
**A.** 9.00

**Q.** And the “Cpre,ss gMean” value ([4]; 10 mg q.d. oral, Day 27 steady state, N = 2)?
**A.** 2.64^b ng/mL

**Q.** What about the “CL/F,ss gMean” value ([4]; 10 mg q.d. oral, Day 27 steady state, n = 3) of the same compound?
**A.** 2980 mL/min

**Q.** What about the “CL/F,ss gMean” value [4, 8] of the same compound?
**A.** 755 mL/min

**Q.** What about the “Cpre,ss gMean” value [4, 8] of the same compound?
**A.** 12.5 ng/mL

**Q.** And the “Cpre,ss gMean” value ([4]; 40 mg q.d. oral, Day 27 steady state, N = 16)?
**A.** 16.1^c ng/mL

**Q.** What about the “CL/F,ss” value [4, 9] of the same compound?
**A.** 567 mL/min

**Q.** What about the “Cpre,ss” value [4, 9] of the same compound?
**A.** 52.3 ng/mL

**Q.** And the dose-proportionality ([4]; 10-60 mg, steady state)?
**A.** no obvious deviation from dose-proportionality

**Q.** What about the steady-state reached ([4]; Treatment Period 1, once-daily oral) of the same compound?
**A.** ≤ 8 days

**Q.** What about the half-life ([4]; human, plasma, oral) of the same compound?
**A.** 37.4 h

**Q.** What about the Vd ([4]; human, plasma, oral, apparent volume of distribution during the terminal phase, overall gMean, all groups (data not shown)) of the same compound?
**A.** 3630 L

**Q.** And the clearance ([4]; human, plasma, oral, gMean, range across dose groups)?
**A.** 567 to 2980 mL/min

**Q.** What about the clearance ([4]; human, plasma, oral, overall gMean, across all groups (data not shown)) of the same compound?
**A.** 1330 mL/min

**Q.** What about the half-life ([4]; human, plasma, po) of the same compound?
**A.** 34 to 48 h

**Q.** What about the “dose that could be safely administered” value ([5]; 2-week on/2-week off schedule) of the same compound?
**A.** 70 mg/day

**Q.** And the “dose administered with tolerable side effects” value ([5]; 3-week on/1-week off schedule)?
**A.** 40 mg/day

**Q.** And the “maximum tolerated dose (MTD)” value ([5]; 3-week on/1-week off schedule)?
**A.** 55 mg/day

**Q.** And the “recommended Phase II dose (RP2D)” value ([5]; once-daily, 2-week on/off schedule)?
**A.** 70 mg

**Q.** And the “Patients discontinued owing to Disease progression” value ([6]; 10 mg/day)?
**A.** 4 (80) n, %

**Q.** What about the “Patients discontinued owing to Disease progression” value ([6]; 20 mg/day) of the same compound?
**A.** 3 (100) n, %

**Q.** And the “Patients discontinued owing to Disease progression” value ([6]; 40 mg/day)?
**A.** 14 (73.7) n, %

**Q.** And the “Patients discontinued owing to Disease progression” value ([6]; 60 mg/day)?
**A.** 1 (33.3) n, %

**Q.** And the “Patients discontinued owing to Disease progression” value ([6]; Total)?
**A.** 22 (73.3) n, %

**Q.** What about the MTD ([6]; continuous once-daily oral, 28-day cycles) of the same compound?
**A.** 40 mg/day

**Q.** What about the “Patients discontinued owing to DLT” value ([7]; human) of the same compound?
**A.** 2 (6.7) n, %

**Q.** And the “Patients discontinued owing to Other AEs” value ([7]; human)?
**A.** 3 (10.0) n, %

**Q.** What about the “dermatitis acneiform, treatment-related AE, patients” value ([7]; human) of the same compound?
**A.** 33.3%

**Q.** What about the “diarrhea, treatment-related AE, patients” value ([7]; human) of the same compound?
**A.** 76.7%

**Q.** And the “fatigue, treatment-related AE, patients” value ([7]; human)?
**A.** 33.3%

**Q.** What about the “mucosal inflammation, treatment-related AE, patients” value ([7]; human) of the same compound?
**A.** 43.3%

**Q.** And the “onset of diarrhea during the first treatment course, patients” value ([7]; human)?
**A.** 70%

**Q.** What about the “patients with AEs considered related to study medication” value ([7]; human) of the same compound?
**A.** 29

**Q.** What about the “patients with at least one AE” value ([7]; human) of the same compound?
**A.** 30

**Q.** And the “Patients with DLT events during the initial 28-day treatment period” value ([7]; human, 28 days)?
**A.** 3 n

**Q.** And the cardiac events [7]?
**A.** No cardiac events were reported

**Q.** What about the “patients with DLT, in total” value [7] of the same compound?
**A.** three patients
